{
  "source": "ChEMBL document CHEMBL5550161",
  "about": "“Discovery of novel small molecules targeting the USP21/JAK2/STAT3 axis for the treatment of triple-negative breast cancer” (Eur J Med Chem, 2024)",
  "key": {"[1]": {"test": "Toxicity in Balb/c nude mouse assessed as histopathological change in lung at 60 mg/kg, ip bid for 14 days consecutively", "type": "organism-based", "conditions": "in vivo, 336 h, time 14 day"}, "[2]": {"tested_on": "MDA-MB-231", "test": "Induction of apoptosis in human MDA-MB-231 cells assessed as ROS production rate at 0.2 uM incubated for 24 hrs by DCFH-DA staining based flow cytometry (reference value: 0.28 %)", "type": "functional"}, "[3]": {"tested_on": "HCC1806", "test": "Anti-proliferative activity against human HCC1806 cells assessed as cell survival", "type": "functional", "conditions": "dose < 0.4 µM; time 24 hrs"}, "[4]": {"tested_on": "HCC1806", "test": "Inhibition of cell invasion in human HCC1806 cells", "type": "functional, cell-based", "conditions": "dose 0.05-2 µM"}, "[5]": {"tested_on": "HCC1806", "test": "Induction of apoptosis in human HCC1806 cells assessed as necrotic cells at 0.8 uM incubated for 24 hrs by Annexin V-FITC/PI staining based flow cytometry (reference value: 0.15 %)", "type": "functional"}, "[6]": {"tested_on": "MDA-MB-231", "test": "Inhibition of cell invasion in human MDA-MB-231 cells", "type": "functional, cell-based", "conditions": "dose 0.05-2 µM"}, "[7]": {"tested_on": "HCC1806", "test": "Induction of apoptosis in human HCC1806 cells assessed as early apoptotic cells at 1.6 uM incubated for 24 hrs by Annexin V-FITC/PI staining based flow cytometry (reference value: 0.67 %)", "type": "functional"}, "[8]": {"tested_on": "HCC1806", "test": "Induction of cell cycle arrest at G2/M phase in human HCC1806 cells at 0.1 to 0.4 uM incubated for 24 hrs", "type": "functional, cell-based", "conditions": "dose 0.1-0.4 µM"}, "[9]": {"tested_on": "MDA-MB-231", "test": "Induction of apoptosis in human MDA-MB-231 cells assessed as late apoptotic cells at 0.1 uM incubated for 24 hrs by Annexin V-FITC/PI staining based flow cytometry (reference value: 1.23 %)", "type": "functional"}, "[10]": {"tested_on": "HCC1806", "test": "Induction of apoptosis in human HCC1806 cells assessed as decrease in STAT3 phosphorylation at Y705 by Western blot analysis", "type": "functional, cell-based", "conditions": "dose 0.1-0.4 µM"}, "[11]": {"tested_on": "HCC1806", "test": "Effect on UCHL3 level in human HCC1806 cells at 0.1 to 0.4 uM incubated for 24 hrs by Western blot analysis", "type": "functional, cell-based", "conditions": "dose 0.1-0.4 µM"}, "[12]": {"tested_on": "HCC1806", "test": "Induction of apoptosis in human HCC1806 cells assessed as necrotic cells at 0.1 uM incubated for 24 hrs by Annexin V-FITC/PI staining based flow cytometry (reference value: 0.15 %)", "type": "functional"}, "[13]": {"tested_on": "MDA-MB-231", "test": "Induction of cell cycle arrest at G2/M phase in human MDA-MB-231 cells at 0.1 to 0.4 uM incubated for 24 hrs", "type": "functional, cell-based", "conditions": "dose 0.1-0.4 µM"}, "[14]": {"test": "Half life in Sprague-Dawley rat at 4 mg/kg, ip", "type": "ADME, organism-based", "conditions": "in vivo"}, "[15]": {"tested_on": "MDA-MB-231", "test": "Induction of apoptosis in human MDA-MB-231 cells assessed as early apoptotic cells at 0.2 uM incubated for 24 hrs by Annexin V-FITC/PI staining based flow cytometry (reference value: 1.16 %)", "type": "functional"}, "[16]": {"tested_on": "HCC1806", "test": "Anti-proliferative activity against human HCC1806 cells assessed as cell growth inhibition incubated for 72 hrs by MTT assay", "type": "functional, cell-based", "conditions": "HCC1806, 72 h"}, "[17]": {"tested_on": "HCC1806", "test": "Induction of apoptosis in human HCC1806 cells assessed as decrease in JAK1 level by Western blot analysis", "type": "functional, cell-based", "conditions": "dose 0.1-0.4 µM"}, "[18]": {"tested_on": "HCC1806", "test": "Induction of apoptosis in human HCC1806 cells assessed as decrease in Bcl-2 level by Western blot analysis", "type": "functional, cell-based", "conditions": "dose 0.1-0.4 µM"}, "[19]": {"tested_on": "HCC1806", "test": "Downregulation of USP21 level in human HCC1806 cells at 0.1 to 0.4 uM incubated for 24 hrs by Western blot analysis", "type": "functional, cell-based", "conditions": "dose 0.1-0.4 µM"}, "[20]": {"tested_on": "MDA-MB-231", "test": "Induction of apoptosis in human MDA-MB-231 cells assessed as viable cells at 0.1 uM incubated for 24 hrs by Annexin V-FITC/PI staining based flow cytometry (reference value: 97.54 %)", "type": "functional", "conditions": "read-out: Activity"}, "[21]": {"tested_on": "HCC1806", "test": "Induction of apoptosis in human HCC1806 cells assessed as viable cells at 0.2 uM incubated for 24 hrs by Annexin V-FITC/PI staining based flow cytometry (reference value: 98.95 %)", "type": "functional", "conditions": "read-out: Activity"}, "[22]": {"tested_on": "MDA-MB-231", "test": "Induction of apoptosis in human MDA-MB-231 cells assessed as necrotic cells at 0.8 uM incubated for 24 hrs by Annexin V-FITC/PI staining based flow cytometry (reference value: 0.07 %)", "type": "functional"}, "[23]": {"tested_on": "HCC1806", "test": "Induction of apoptosis in human HCC1806 cells assessed as viable cells at 1.6 uM incubated for 24 hrs by Annexin V-FITC/PI staining based flow cytometry (reference value: 98.95 %)", "type": "functional", "conditions": "read-out: Activity"}, "[24]": {"tested_on": "HCC1806", "test": "Induction of apoptosis in human HCC1806 cells assessed as ROS production rate at 0.1 uM incubated for 24 hrs by DCFH-DA staining based flow cytometry (reference value: 0.23 %)", "type": "functional"}, "[25]": {"test": "Toxicity in Balb/c nude mouse assessed as histopathological change in heart at 60 mg/kg, ip bid for 14 days consecutively", "type": "organism-based", "conditions": "in vivo, 336 h, time 14 day"}, "[26]": {"tested_on": "MDA-MB-231", "test": "Induction of apoptosis in human MDA-MB-231 cells assessed as necrotic cells at 0.1 uM incubated for 24 hrs by Annexin V-FITC/PI staining based flow cytometry (reference value: 0.07 %)", "type": "functional"}, "[27]": {"target": "Tyrosine-protein kinase JAK2 (Homo sapiens, UniProt O60674)", "sequence (O60674 whole entry)": "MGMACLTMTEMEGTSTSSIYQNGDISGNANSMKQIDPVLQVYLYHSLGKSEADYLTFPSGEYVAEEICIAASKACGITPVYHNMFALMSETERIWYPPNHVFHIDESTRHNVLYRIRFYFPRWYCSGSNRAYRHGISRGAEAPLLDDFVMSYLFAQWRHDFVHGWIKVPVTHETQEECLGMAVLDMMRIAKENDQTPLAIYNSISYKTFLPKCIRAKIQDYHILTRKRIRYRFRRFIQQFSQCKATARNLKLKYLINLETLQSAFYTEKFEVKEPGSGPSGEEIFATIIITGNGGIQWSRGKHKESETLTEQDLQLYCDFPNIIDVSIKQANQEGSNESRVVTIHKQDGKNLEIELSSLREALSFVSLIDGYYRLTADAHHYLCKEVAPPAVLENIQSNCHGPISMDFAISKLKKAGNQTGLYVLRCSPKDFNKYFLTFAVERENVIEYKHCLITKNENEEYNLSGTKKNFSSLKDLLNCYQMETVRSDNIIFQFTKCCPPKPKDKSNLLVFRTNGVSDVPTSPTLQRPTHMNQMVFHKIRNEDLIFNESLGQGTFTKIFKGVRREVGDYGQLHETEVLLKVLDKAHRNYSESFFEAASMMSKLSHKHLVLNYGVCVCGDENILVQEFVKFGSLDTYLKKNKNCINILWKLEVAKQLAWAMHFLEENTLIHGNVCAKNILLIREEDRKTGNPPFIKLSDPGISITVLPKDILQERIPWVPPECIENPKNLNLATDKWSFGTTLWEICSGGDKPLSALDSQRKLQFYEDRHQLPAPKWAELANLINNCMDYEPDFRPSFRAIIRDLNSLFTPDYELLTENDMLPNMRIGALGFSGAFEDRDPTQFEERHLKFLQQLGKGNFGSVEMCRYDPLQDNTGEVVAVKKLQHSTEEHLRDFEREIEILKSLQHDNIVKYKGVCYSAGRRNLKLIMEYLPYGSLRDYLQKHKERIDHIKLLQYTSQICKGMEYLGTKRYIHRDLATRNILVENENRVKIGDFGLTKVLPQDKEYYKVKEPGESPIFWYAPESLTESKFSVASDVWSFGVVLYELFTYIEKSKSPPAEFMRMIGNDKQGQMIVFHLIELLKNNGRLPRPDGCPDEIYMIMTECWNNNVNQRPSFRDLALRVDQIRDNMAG", "test": "Induction of JAK2 degradation in human HCC1806 cells at 0.2 uM incubated for 18 to 72 hrs by Western blot analysis", "type": "cell-based", "conditions": "time 18-72 hrs"}, "[28]": {"tested_on": "MDA-MB-231", "test": "Induction of apoptosis in human MDA-MB-231 cells assessed as ROS production rate at 0.4 uM incubated for 24 hrs by DCFH-DA staining based flow cytometry (reference value: 0.28 %)", "type": "functional"}, "[29]": {"tested_on": "Hs-578T", "test": "Anti-proliferative activity against human Hs-578T cells assessed as cell growth inhibition incubated for 72 hrs by MTT assay", "type": "functional, cell-based"}, "[30]": {"tested_on": "MDA-MB-231", "test": "Induction of apoptosis in human MDA-MB-231 cells assessed as ROS production rate at 0.1 uM incubated for 24 hrs by DCFH-DA staining based flow cytometry (reference value: 0.28 %)", "type": "functional"}, "[31]": {"tested_on": "MDA-MB-231", "test": "Induction of apoptosis in human MDA-MB-231 cells assessed as early apoptotic cells at 0.4 uM incubated for 24 hrs by Annexin V-FITC/PI staining based flow cytometry (reference value: 1.16 %)", "type": "functional"}, "[32]": {"test": "Toxicity in Balb/c nude mouse assessed as histopathological change in liver at 60 mg/kg, ip bid for 14 days consecutively", "type": "organism-based", "conditions": "in vivo, 336 h, time 14 day"}, "[33]": {"tested_on": "HCC1806", "test": "Downregulation of CUL5 level in human HCC1806 cells at 0.1 to 0.4 uM incubated for 24 hrs by Western blot analysis", "type": "functional, cell-based", "conditions": "dose 0.1-0.4 µM"}, "[34]": {"tested_on": "HCC1806", "test": "Induction of apoptosis in human HCC1806 cells assessed as necrotic cells at 0.4 uM incubated for 24 hrs by Annexin V-FITC/PI staining based flow cytometry (reference value: 0.15 %)", "type": "functional"}, "[35]": {"tested_on": "MDA-MB-231", "test": "Induction of apoptosis in human MDA-MB-231 cells assessed as decrease in STAT3 phosphorylation at Y705 by Western blot analysis", "type": "functional, cell-based", "conditions": "dose 0.1-0.4 µM"}, "[36]": {"tested_on": "HCC1806", "test": "Induction of apoptosis in human HCC1806 cells assessed as necrotic cells at 1.6 uM incubated for 24 hrs by Annexin V-FITC/PI staining based flow cytometry (reference value: 0.15 %)", "type": "functional"}, "[37]": {"tested_on": "HCC1806", "test": "Antitumor activity against human HCC1806 cells xenografted in Balb/c mouse assessed as increase in E-cadherin level at 40 to 60 mg/kg, ip bid measured after 14 days by IHC analysis", "type": "functional, organism-based", "conditions": "dose 40-60 mg/kg, time 14.0 day"}},
  "note": "Active and inactive are the calls of the source. The calls are words filed in the database; no cut-off is given here.",
  "data": [
    {"smiles": "COc1cc(Nc2cc(F)ccc2C(=O)NCCc2c[nH]c3c(F)ccc(F)c23)cc(OC)c1OC", "values": [
      {"measurement": "Activity", "setting": "[1]", "result": "Non-Toxic"},
      {"measurement": "Activity", "setting": "[2]", "result": 1.06, "unit": "%"},
      {"measurement": "Survival", "setting": "[3]", "result": ">80", "unit": "%"},
      {"measurement": "inhibition", "setting": "[4]", "result": "Active"},
      {"measurement": "Activity", "setting": "[5]", "result": 0.29, "unit": "%"},
      {"measurement": "inhibition", "setting": "[6]", "result": "Active"},
      {"measurement": "Activity", "setting": "[7]", "result": 4.81, "unit": "%"},
      {"measurement": "Activity", "setting": "[8]", "result": "Active"},
      {"measurement": "Activity", "setting": "[9]", "result": 1.23, "unit": "%"},
      {"measurement": "Activity", "setting": "[10]", "result": "Active"},
      {"measurement": "Activity", "setting": "[11]", "result": "inactive"},
      {"measurement": "Activity", "setting": "[12]", "result": 0.11, "unit": "%"},
      {"measurement": "Activity", "setting": "[13]", "result": "Active"},
      {"measurement": "half-life", "setting": "[14]", "result": 5.57, "unit": "h"},
      {"measurement": "Activity", "setting": "[15]", "result": 1.99, "unit": "%"},
      {"measurement": "IC50", "setting": "[16]", "result": 250, "unit": "nM"},
      {"measurement": "Activity", "setting": "[17]", "result": "Active"},
      {"measurement": "Activity", "setting": "[18]", "result": "Active"},
      {"measurement": "Activity", "setting": "[19]", "result": "Active"},
      {"measurement": "viability at 0.1 µM", "setting": "[20]", "result": 96.9, "unit": "%"},
      {"measurement": "viability at 0.2 µM", "setting": "[21]", "result": 98.1, "unit": "%"},
      {"measurement": "Activity", "setting": "[22]", "result": 0.11, "unit": "%"},
      {"measurement": "viability at 1.6 µM", "setting": "[23]", "result": 92.9, "unit": "%"},
      {"measurement": "Activity", "setting": "[24]", "result": 0.66, "unit": "%"},
      {"measurement": "Activity", "setting": "[25]", "result": "Non-Toxic"},
      {"measurement": "Activity", "setting": "[26]", "result": 0.19, "unit": "%"},
      {"measurement": "Activity", "setting": "[27]", "result": "Active"},
      {"measurement": "Activity", "setting": "[28]", "result": 3.17, "unit": "%"},
      {"measurement": "IC50", "setting": "[29]", "result": 590, "unit": "nM"},
      {"measurement": "Activity", "setting": "[30]", "result": 0.61, "unit": "%"},
      {"measurement": "Activity", "setting": "[31]", "result": 2.31, "unit": "%"},
      {"measurement": "Activity", "setting": "[32]", "result": "Non-Toxic"},
      {"measurement": "Activity", "setting": "[33]", "result": "Active"},
      {"measurement": "Activity", "setting": "[34]", "result": 0.28, "unit": "%"},
      {"measurement": "Activity", "setting": "[35]", "result": "Active"},
      {"measurement": "Activity", "setting": "[36]", "result": 0.35, "unit": "%"},
      {"measurement": "Activity", "setting": "[37]", "result": "Active"}
    ]}
  ]
}
